Test results from patent US3978055A, “Arylamino pyrimidinic derivatives” (priority 1973, dated 1976).
Read-outs that look alike come from different tables or passages of the source.

How the values were obtained:
[1] = system: bronchoconstriction provoked by acetylcholine; experiment: Bronchoconstriction provoked by intravenous acetylcholine, Konzett method; assay type: in vivo; conditions: guinea-pig, intraperitoneal injection of 100mg/kg
Protocol: Injected by intraduodenal means, the derivatives of formula I are capable of opposing the bronchoconstriction provoked in the guinea - pig by the intraveinous injection of acetylcholine and evaluated by the Konzett method.
By way of example, the following Table VI lists the percentage inhibition of the bronchoconstriction following the intraperitoneal injection of 100mg/kg of different derivatives of formula I.

[2] = Lethal doses / percentage mortality; assay type: in vivo; conditions: in vivo, mouse; for LD50: po, Table IX, read-out: DE 50 (second column; DL 50) (converted)
Text: (§1) As a result of a comparison between the pharmacologically active doses mentioned above, and the lethal doses listed in the following table XIV, the difference between the doses is sufficiently great to permit the utilisation of the derivatives of formula I in therapeutics.

[3] = system: isolated heart of guinea-pig; experiment: Augmentation of flow of coronary vessels of isolated heart (vasodilatatory); conditions: Cavia porcellus, read-out: Percentage augmentation of flow of isolated heart of guinea-pig; for activation at 1 µg/mL: 1 μg/ml
Protocol: The derivatives of formula I are capable of augmenting the flow of the coronary vessels of this isolated heart of a guinea - pig, when said derivatives are added in the perfusion liquid of said organ.
The percentage augmentation of the flow of the isolated heart of the guinea - pig by adding different derivatives of formula I to the perfusion liquid are given by way of example in the following Table V.

[4] = system: Shay ulcers; experiment: Gastric ulcers provoked by tying of the pylorus (Shay ulcers); assay type: in vivo; conditions: intraduodenal; rat, 50mg/kg/i.d.; read-out: Percentage reduction of shay ulcers
Protocol: The derivatives of formula I, administered by oral means, reduce the extent of gastric ulcers provoked in a rat by tying of the pylorus (Shay ulcers)
Table IV indicated, by way of example, the results obtained by the administration of 50mg/kg/i.d. of different derivatives of formula I.

[5] = system: local oedema caused by sub-plantar injection of carraghenine; experiment: Sub-plantar oedema caused by carraghenine (antiinflammatory); assay type: in vivo, rat; conditions: for inhibition in vivo at 100 mg/kg: 100 mg/kg/PO, read-out: Percentage reduction of subplantar oedema; for ED50: po
Text: These properties are shown by a diminution of the local oedema caused by the sub-plantar injection of a phlogogenic agent, such as carraghenine, in the rat following the oral administration of derivatives of formula I.

[6] = system: volume of urine emitted; experiment: Augmentation of urinary elimination (diuretic properties); assay type: in vivo; conditions: po; mouse, 25mg/kg/p.o., 6 hours; read-out: Percentage augmentation of urinary elimination
Protocol: The derivatives of formula I, administered by oral means to the mouse, simultaneously with a volume of 1ml of an isotonic solution of sodium chloride per 25g of the corporeal weight of the mouse, are capable of provoking an augmentation of the volume of urine emitted by reference to control animals, the volume being measured for 6 hours following administration.
The following Table VII indicates, by way of example the percentage augmentation of urinary elimination resulting from the administration of 25mg/kg/p.o. of different derivatives of formula I.

[7] = system: isolated heart of the guinea-pig; experiment: Force of contractions on isolated heart (positive inotrope action); conditions: 1 μg/ml
Protocol: Additionally, the derivative of Code No. 730 712 added to the conserving medium in a concentration of 1 μg/ml, permit an augmentation of 140% in the force of contractions on the isolated heart of the guinea- pig.

[8] = system: number of explorations in the escape enclosure; experiment: Number of explorations in the escape enclosure (sedative properties); assay type: in vivo, mouse; conditions: po; mouse, escape enclosure, 100mg/kg/p.o.; read-out: Percentage diminution of number of explorations
[9] = system: analgesic action of dextromoramide in the Eddy test; experiment: Eddy test (potentialisation of dextromoramide analgesia); assay type: in vivo, mouse; conditions: for ED50: Mus musculus, po, read-out: 105 DE (DE 50)
[10] = system: painful stretchings caused by phenylbenzoquinone; experiment: Analgesic test with phenylbenzoquinone (painful stretchings); assay type: in vivo; conditions: Mus musculus, po; for ED50: read-out: 105 DE (DE 50); for inhibition in vivo at 100 mg/kg: read-out: Percentage of diminution of the number of painful stretchings
[11] = system: crying and jumping in the Randall and Selitto test; experiment: Randall and Selitto test; assay type: in vivo, rat; conditions: for ED50: po, read-out: 105 DE (DE 50)
[12] = system: arterial pressure of anaesthetised rat; experiment: Lowering of arterial pressure of anaesthetised rat (hypotensive properties); assay type: in vivo; conditions: 2 mg/kg/i.v.
Text: Administered by intraveinous means to an anaesthetised rat, the derivatives of formula I provoke a lowering of the arterial pressure.
By way of example, the following Table VIII mentions the results obtained by administration of different derivatives of formula I.

[13] = system: mouse; experiment: Lethal doses / percentage mortality; assay type: in vivo; conditions: Table IX
Text: as §1

[14] = system: painful stretchings caused by bradykinine; experiment: Analgesic test with bradykinine (painful stretchings); assay type: in vivo, mouse; conditions: Mus musculus, po, read-out: 105 DE (DE 50)
[15] = system: painful stretchings caused by acetic acid; experiment: Analgesic test with acetic acid (painful stretchings); assay type: in vivo, mouse; conditions: po, read-out: 105 DE (DE 50)
[16] = system: pain threshold in the dentary pulp stimulation test; experiment: Dentary pulp stimulation test; assay type: in vivo; conditions: rabbit
Text: Moreover, the derivatives of formula I, administered rectally to a rabbit, enabled the pain threshold to be raised in the dentary pulp stimulation test.
As an example, the following table XI gives the results of a comparative study between the activity of derivative code number 730 229 and that of glaphenine, the activities being estimated by the dentary stimulation test

[17] = antiinflammatory activity, rat, read-out: DE 50 (the source's name)

Compound: Cc1cc(Nc2ccc(C(=O)N3CCCC3)cc2)nc(-c2ccc(Cl)cc2)n1 [72 255]
- Percentage inhibition of bronchoconstriction [1]: 50%
- mortality ([2]; 2000 mg/kg, 2 000 mg/kg/PO): 0%
- activation at 1 µg/mL [3]: 45%
- inhibition in vivo at 50 mg/kg [4]: 35%
- inhibition in vivo at 100 mg/kg ([5]; rat): 60%

Compound: Cc1cc(Nc2ccccc2C(N)=O)nc(-c2ccc(Cl)cc2)n1 [72 257]
- mortality ([2]; 2000 mg/kg, 2 000 mg/kg/PO): 0%
- activation at 1 µg/mL [3]: 80%
- inhibition in vivo at 50 mg/kg [4]: 50%

Compound: Cc1cc(Nc2ccc(C(=O)N3CCN(c4ccccc4)CC3)cc2)nc(-c2ccc(Cl)cc2)n1 [72 260]
- mortality ([2]; 2000 mg/kg, 2 000 mg/kg/PO): 0%
- activation at 1 µg/mL [3]: 70%
- inhibition in vivo at 50 mg/kg [4]: 35%

Compound: Cc1cc(Nc2ccc(C(=O)N3CCCCC3)cc2)nc(-c2ccc(Cl)cc2)n1 [72 276]
- Percentage inhibition of bronchoconstriction [1]: 50%
- mortality ([2]; 2000 mg/kg, 2 000 mg/kg/PO): 0%
- inhibition in vivo at 50 mg/kg [4]: 40%

Compound: Cc1cc(Nc2ccc(C(N)=O)cc2)nc(-c2ccc(Cl)cc2)n1 [72 311]
- Percentage inhibition of bronchoconstriction [1]: 80%
- mortality ([2]; 2000 mg/kg, 2 000 mg/kg/PO): 0%
- inhibition in vivo at 50 mg/kg [4]: 40%
- inhibition in vivo at 100 mg/kg ([5]; rat): 50%

Compound: Cc1cc(Nc2ccccc2C(N)=O)nc(-c2cccc(C(F)(F)F)c2)n1 [72 419]
- mortality ([2]; 2000 mg/kg, 2 000 mg/kg/PO): 0%
- change in vivo at 25 mg/kg [6]: 80%
- positive inotrope action [7]: positive inotrope action
- inhibition in vivo at 100 mg/kg ([5]; rat): 50%

Compound: COc1cc(-c2nc(C)cc(Nc3ccc(C(=O)N4CCN(c5ccccc5)CC4)cc3)n2)cc(OC)c1OC [72 450]
- mortality ([2]; 2000 mg/kg, 2 000 mg/kg/PO): 0%
- inhibition in vivo at 100 mg/kg [8]: 35%
- activation at 1 µg/mL [3]: 85%

Compound: Cc1cc(Nc2ccccc2C(=O)OCC(O)CO)nc(-c2cccc(C(F)(F)F)c2)n1 (stereo not drawn) [72 502, 2 - (3' - trifluoromethylphenyl)-4-[ortho (β, γ-dihydroxy propoxycarbonyl)phenylamino] -6-methyl pyrimidine]
- Percentage inhibition of bronchoconstriction [1]: 50%
- mortality ([2]; 2000 mg/kg, 2 000 mg/kg/PO): 0%
- inhibition in vivo at 50 mg/kg [4]: 35%

Compound: CCOC(=O)c1ccc(Nc2cc(C)nc(-c3ccc4c(c3)OCO4)n2)cc1 [72 613]
- mortality ([2]; 2000 mg/kg, 2 000 mg/kg/PO): 0%
- activation at 1 µg/mL [3]: 85%
- inhibition in vivo at 50 mg/kg [4]: 70%

Compound: Cc1cc(Nc2ccccc2C(=O)OCC2COC(C)(C)O2)nc(-c2cccc(F)c2)n1 (stereo not drawn) [72 796]
- mortality ([2]; 2000 mg/kg, 2 000 mg/kg/PO): 0%
- activation at 1 µg/mL [3]: 60%

Compound: Cc1cc(Nc2ccccc2C(=O)OCC(O)CO)nc(-c2cccc(F)c2)n1 (stereo not drawn) [72 826]
- Percentage inhibition of bronchoconstriction [1]: 100%
- mortality ([2]; 2000 mg/kg, 2 000 mg/kg/PO): 0%
- change in vivo at 25 mg/kg [6]: 80%
- inhibition in vivo at 100 mg/kg ([5]; rat): 60%

Compound: Cc1cc(Nc2ccc(C(N)=O)cc2)nc(-c2ccc3c(c2)OCO3)n1 [730 025]
- Percentage inhibition of bronchoconstriction [1]: 50%
- mortality ([2]; 2000 mg/kg, 2 000 mg/kg/PO): 0%
- change in vivo at 25 mg/kg [6]: 140%
- inhibition in vivo at 50 mg/kg [4]: 35%

Compound: Cc1cc(Nc2ccc(OCCN(C)C)cc2)nc(-c2ccc(Cl)cc2)n1 [730 225]
- mortality ([2]; 2000 mg/kg, 2 000 mg/kg/PO): ~20%
- LD50 [2]: > 2000 mg/kg
- ED50 [9]: 80 mg/kg
- ED50 [10]: 42 mg/kg
- inhibition in vivo at 50 mg/kg [4]: 53%
- Percentage of diminution of the number of painful stretchings ([11]; Randall and Selitto test, 100 mg/kg/PO): 50%

Compound: Cc1cc(Nc2ccc(OCCN(C)C)cc2)nc(-c2cccc(C(F)(F)F)c2)n1 [730 241]
- mortality ([2]; 2000 mg/kg, 2 000 mg/kg/PO): 0%
- inhibition in vivo at 100 mg/kg [10]: 67%
- activation at 0.5 µg/mL ([3]; 0.5 μg/ml): 77%
- Percentage reduction of arterial pressure of anaesthetised rat [12]: 24%
- Duration of effect ([12]; hypotensive effect): 30 mn

Compound: Cc1cc(Nc2ccc(OCCN(C)C)cc2)nc(-c2cccc(Cl)c2)n1 [730 262]
- mortality ([2]; 2 2500 mg/kg/PO): ~50%
- LD50 [2]: 2500 mg/kg
- DE 50 (second column; DL 50) [13]: 2 500 mg/kg/PO
- ED50 [9]: 60 mg/kg
- ED50 [10]: 52 mg/kg
- ED50 [14]: 100 mg/kg

Compound: Cc1cc(Nc2ccc(OCCN3CCCCCC3)cc2)nc(-c2cccc(Cl)c2)n1 [730 283]
- mortality ([2]; 1000 mg/kg, 1 000 mg/kg/PO): ~50%
- inhibition in vivo at 100 mg/kg [10]: 57%
- activation at 0.1 µg/mL ([3]; 0.1 μg/ml): 61%
- inhibition in vivo at 50 mg/kg [4]: 45%

Compound: CC(=O)Oc1ccccc1C(=O)O [acetylsalicylic acid, reference compound]
- LD50 [2]: 700 mg/kg
- effect in Eddy test (40 % with 200) ([9]; 200 mg/kg/PO): 40%
- ED50 [9]: > 200 mg/kg
- ED50 [10]: 72 mg/kg
- ED50 ([15]; Mus musculus): 115 mg/kg
- ED50 ([11]; Rattus norvegicus): 110 mg/kg
- ED50 ([5]; Rattus norvegicus, read-out: DE 50): 40 mg/kg
- ED50 [14]: 180 mg/kg

Compound: Cc1c(N(C)C)c(=O)n(-c2ccccc2)n1C [amidopyrine, 4-dimethylamino-2,3-dimethyl-1 phenyl-3-pyrazolin-5-one, reference compound]
- LD50 [2]: 1050 mg/kg
- DE 50 (second column; DL 50) [13]: 1 050 mg/kg/PO
- ED50 [9]: 35 mg/kg
- ED50 [10]: 45 mg/kg
- ED50 ([15]; test with acetic acid, mouse): 80 mg/kg
- DE 50 / DL 50 ([11]; Randall and Selitto test): 1.10^-1
- ED50 ([11]; Randall and Selitto test, rat): 110 mg/kg
- ED50 [5, 17]: 140 mg/kg
- ED50 [14]: 48 mg/kg

Compound: O=C(OCC(O)CO)c1ccccc1Nc1ccnc2cc(Cl)ccc12 (stereo not drawn) [glaphenine, N-(7-chloro-4-quinolyl) anthranilic acid 2,3-dihydroxypropylester]
- LD50 [2]: 1900 mg/kg
- DE 50 (second column; DL 50) [13]: 1 900 mg/kg/PO
- ED50 [10]: 60 mg/kg
- Duration of action ([16]; 50 mg/kg rectally): 1 h
- Number of rabbits whose pain threshold is increased by 0,5 V ([16]; 50 mg/kg rectally): 4/10
- Duration of action ([16]; 100 mg/kg rectally): 1,5 hours
- Number of rabbits whose pain threshold is increased by 0,5 V ([16]; 100 mg/kg rectally): 6/10
- Peak action ([16]; 100 mg/kg rectally): 45 mn
- Duration of action ([16]; 200 mg/kg rectally): 2 h
- Number of rabbits whose pain threshold is increased by 0,5 V ([16]; 200 mg/kg rectally): 8/10
- ED50 ([15]; test with acetic acid, mouse): 80 mg/kg
- ED50 ([11]; Randall and Selitto test, rat): 65 mg/kg
- ED50 [5, 17]: 9 mg/kg
- ED50 [14]: 48 mg/kg
